# According to patent US20020193564A1, “Oligomeric chaperone proteins” (priority 1999, published 2002):
# Experiments:
# [1] = test system: bacteriophage T4; experiment: Growth of bacteriophage T4 in transformed groEL strains; assay type: cell-based, bacteriophage T4 (T4D0) in E. coli; set-up: key to Growth of bacteriophage T4, SV1 (groEL^+) / Growth of bacteriophage T4, SV2 groEL44 / Growth of bacteriophage T4, SV3 GroEL59 / Growth of bacteriophage T4, SV6 groEL673: +++: normal plaque-forming ability relative to wild-type groEL^+ strain, in terms of both number and size; ++: 5-fold fewer plaques relative to wild-type groEL^+ strain, or both; 10-fold fewer plaques, or plaque size reduced relative to wild-type groEL^+ strain, or both; +/−: 10^2-fold fewer plaques and plaque size reduced relative to wild-type groEL^+ strain; no visible plaques (<10^−4); conditions: 37° C.
# Text: (§1) The E. Coli strains used in this study were: C41(DE3), a mutant of BL21(DE3) capable of expressing toxic genes (Miroux, B. & Walker, J. E. (1996) J. Mol. Biol. 260, 289-298); SV2 (B178groEL44), SV3 (B178groEL59) and SV6 (B178groEL673): isogenic strains carrying temperature-sensitive alleles of groEL; SV1(=B178) (Georgopoulos, C., Hendrix, R. W., Casjens, S. R. & Kaiser, A. D. (1973) J. Mol. Biol. 76, 45-60), A190 (ΔgroEL::kan^R) [pBAD-EL] (Ivic, A., Olden, D., Wallington, E. J. & Lund, P. A. (1997) Gene 194, 1-8), and TG1 (Gibson, T. J. (1984) Ph.D. thesis, University of Cambridge, U.K). Bacteriophage λb2cI (Zeilstra-Ryalls, J., Fayet, O., Baird, L. & Georgopoulos, C. (1993) J. Bacteriol. 175, 1134-1143) was used according to standard methods (Arber, W., Enquist, L., Hohn, B., Murray, N. E. & Murray, K. (1983) in Lambda II., ed. R. W. Hendrix, J. W. r., F. W. Stahl and R. A. Weisberg (Cold Spring Harbor Laboratory, Cold Spring Harbor, N.Y.), pp. 433-466); plaque formation was assayed at 30° C. T4D0, a derivative of bacteriophage T4 (Zeilstra-Ryalls, J., Fayet, O., Baird, L. & Georgopoulos, C. (1993) J. Bacteriol. 175, 1134-1143), was used according to standard methods (Karam, J. D. (1994) Molecular biology of bacteriophage T4. (American Society for Microbiology, Washington, D.C.)); plaque formation was assayed at 37° C.
# [2] = test system: bacteriophage λ; experiment: Growth of bacteriophage λ in transformed groEL strains; assay type: cell-based, bacteriophage λ (b2cI) in E. coli
# Text: as §1
# [3] = test system: E. coli SV2 groEL44; experiment: In vivo complementation of ts groEL44 at 43° C.; assay type: cell-based; conditions: plasmids pJC, relative to growth at 30° C.
# Protocol: In vivo Complementation Experiments.
# Complementation experiments were performed by transforming electro-competent SV2 or SV6 cells with the pJC series of expression vectors and plating an aliquot of the transformation reactions directly at 43° C. The percentage of viable cells relative to the growth at 30° C. was determined. A representative number of clones which grew at 43° C. were incubated in absence of any selective markers at permissive temperature. After prolonged growth the loss of the pJC plasmids and the ts phenotype were verified. Each experiment was performed in duplicate. Plasmids carrying no groE genes or encoding the GroE proteins were used as negative or positive controls, respectively.
# [4] = test system: mutant Huntingdon exon 1-expressing PC12 and SH-SY5Y cells; experiment: Inclusion formation and cell death, mutant Huntingdon exon 1; assay type: cell-based; conditions: overexpression
# Text: These phenomena have been studied by transiently transfecting part of Huntingdon exon 1 in COS-7, PC12, and SH-SY5Y cells. Inclusion formation was not seen with constructs expressing 23 glutamines but was repeat length and time dependent for mutant constructs with 43-74 repeats. HSP70, HSP40, the 20S proteasome and ubiquitin colocalized with inclusions. […] Thus, inclusion formation may be enhanced in polyglutamine diseases, if the pathological process results in proteasome inhibition or a heat-shock response. […] To our knowledge, this is the first report of an HSP increasing aggregation of an abnormally folded protein in mammalian cells and expands the current understanding of the roles of HDJ-2yHSDJ in protein folding (See Wyttenbach, A. et al. (2000) Proc. Natl. Acad. Sci. USA 97, 2899-2903).
# We have tested MC72 in the same system.
# [5] = test system: Lorist6 (bacteriophage λ origin vector); experiment: Effect of over-expression on Lorist6 replication; assay type: cell-based, E. coli; conditions: over-expression from pJC
# Protocol: Effect on Lorist6 Replication of Over-Expressing of MC7.
# The effect of over-expressing Gp31 proteins from pJC vector series on the replication of the bacteriophage λ origin vector, Lorist6 (Gibson, T. J., Rosenthal, A. & Waterston, R. H. (1987) Gene 53, 283-286) in TG1 (Gibson, T. J. (1984) Ph.D. thesis, University of Cambridge, U.K) or SV1 (Georgopoulos, C., Hendrix, R. W., Casjens, S. R. & Kaiser, A. D. (1973) J. Mol. Biol. 76, 45-60) cells was determined essentially as described (Chatellier, J., Hill, F., Lund, P. & Fersht, A. R. (1998) Proc. Natl. Acad. Sci. U.S.A. 95, 9861-9866).
substance,measurement,setting,value
"GroEL(1-548): key molecular chaperone in Escherichia coli, 14 subunits of 57.5 kD in two seven membered rings","Growth of bacteriophage T4, SV1 (groEL^+)",[1]; SV1,+++
same,"Growth of bacteriophage T4, SV2 groEL44",[1]; SV2,+++
same,"Growth of bacteriophage T4, SV3 GroEL59",[1]; SV3,+++
same,"Growth of bacteriophage T4, SV6 groEL673",[1]; SV6,+++
same,"Growth of bacteriophage λ, SV1 (groEL^+)","[2]; 30° C., SV1",− (no visible plaques (<10^−4))
same,"Growth of bacteriophage λ, SV2 groEL44","[2]; 30° C., SV2","+ (10-fold fewer plaques, or plaque size reduced relative to wild-type groEL^+ strain, or both)"
same,"Growth of bacteriophage λ, SV3 GroEL59","[2]; 30° C., SV3","++ (5-fold fewer plaques relative to wild-type groEL^+ strain, or both)"
same,"Growth of bacteriophage λ, SV6 groEL673","[2]; 30° C., SV6",+/− (10^2-fold fewer plaques and plaque size reduced relative to wild-type groEL^+ strain)
same,Complementation of groEL mutant strains for bacteriophage λ growth,"[2]; 30° C., groEL mutant strains",weak complementation
same,Effect of over-expression on λ growth / plaque counts,[2]; SV1 (groE^+),suffices to inhibit λ growth
same,"Relative colony forming ability, SV2 groEL44",[3],1
same,cell death,[4],no effect
same,inclusion formation,[4],no effect
same,replication of the Lorist6 plasmid,[5],inhibit the replication
